{"source": "ChEMBL document CHEMBL3297700", "about": "“Dose-dependent inhibition of BACE-1 by the monoterpenoid 2,3,4,4-tetramethyl-5-methylenecyclopent-2-enone in cellular and mouse models of Alzheimer's disease” (J Nat Prod, 2014)", "key": {"Beta-secretase 1 [1]": {"target": "T1, Beta-secretase 1 (Homo sapiens, UniProt P56817)", "T1 sequence (P56817 whole entry)": "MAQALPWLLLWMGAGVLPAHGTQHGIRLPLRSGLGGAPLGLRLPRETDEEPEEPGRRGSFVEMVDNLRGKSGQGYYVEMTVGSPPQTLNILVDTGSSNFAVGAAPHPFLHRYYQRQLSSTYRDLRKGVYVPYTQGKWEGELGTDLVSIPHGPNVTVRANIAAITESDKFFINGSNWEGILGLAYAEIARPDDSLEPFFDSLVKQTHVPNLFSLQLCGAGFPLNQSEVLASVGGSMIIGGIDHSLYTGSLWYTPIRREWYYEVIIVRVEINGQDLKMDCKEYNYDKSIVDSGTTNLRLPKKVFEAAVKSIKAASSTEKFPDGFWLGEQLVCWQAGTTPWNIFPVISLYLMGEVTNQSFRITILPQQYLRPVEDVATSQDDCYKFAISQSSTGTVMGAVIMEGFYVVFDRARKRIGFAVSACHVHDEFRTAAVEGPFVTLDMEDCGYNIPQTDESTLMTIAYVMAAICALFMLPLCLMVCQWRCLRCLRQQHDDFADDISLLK", "assay": "Inhibition of recombinant BACE-1 (unknown origin) expressed in Escherichia coli measured for 5 to 30 mins by spectrofluorometric analysis", "conditions": "read-out: Ki(app)"}, "Cathepsin D": {"target": "Cathepsin D (Homo sapiens, UniProt P07339)", "sequence (P07339 65-162 limits assumed)": "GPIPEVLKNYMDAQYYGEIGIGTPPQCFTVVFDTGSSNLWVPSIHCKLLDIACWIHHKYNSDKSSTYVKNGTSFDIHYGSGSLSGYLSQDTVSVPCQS", "sequence (P07339 169-412 limits assumed)": "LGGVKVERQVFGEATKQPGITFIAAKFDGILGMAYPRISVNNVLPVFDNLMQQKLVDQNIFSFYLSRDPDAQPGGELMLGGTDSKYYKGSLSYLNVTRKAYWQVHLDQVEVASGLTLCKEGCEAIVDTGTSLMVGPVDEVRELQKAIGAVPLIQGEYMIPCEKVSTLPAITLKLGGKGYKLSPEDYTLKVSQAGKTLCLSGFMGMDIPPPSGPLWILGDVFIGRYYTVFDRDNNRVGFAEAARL", "assay": "Inhibition of cathepsin D in human liver using Lys-Lys-Pro-Ala-Glu-Phe-Phe-Ala-Leu-Lys as substrate by spectrofluorometric analysis", "conditions": "read-out: Ki(app)"}, "Beta-secretase 1 [2]": {"target": "Beta-secretase 1 (Cricetulus griseus, UniProt G3IAK4)", "sequence (G3IAK4 whole entry)": "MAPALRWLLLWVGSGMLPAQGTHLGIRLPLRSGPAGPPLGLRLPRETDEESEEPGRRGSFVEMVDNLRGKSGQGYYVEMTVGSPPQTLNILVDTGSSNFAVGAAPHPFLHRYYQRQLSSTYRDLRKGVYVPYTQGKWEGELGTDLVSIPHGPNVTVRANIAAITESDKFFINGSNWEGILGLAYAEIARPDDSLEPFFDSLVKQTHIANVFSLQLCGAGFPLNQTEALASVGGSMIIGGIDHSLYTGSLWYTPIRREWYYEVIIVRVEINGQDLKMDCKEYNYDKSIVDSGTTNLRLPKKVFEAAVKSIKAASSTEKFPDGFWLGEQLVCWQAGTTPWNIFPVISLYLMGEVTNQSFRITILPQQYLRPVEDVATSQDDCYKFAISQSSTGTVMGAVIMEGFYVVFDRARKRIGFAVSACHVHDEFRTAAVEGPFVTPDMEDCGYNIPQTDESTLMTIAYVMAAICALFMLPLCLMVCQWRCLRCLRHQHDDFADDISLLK", "assay": "Inhibition of BACE-1 in CHO cells expressing wild-type APP assessed as reduction in amyloid beta-40 production after 6 hrs by sandwich ELISA"}, "Beta-secretase 1 [3]": {"target": "T1, Beta-secretase 1", "assay": "Inhibition of BACE-1 in human SH-SY5Y cells expressing wild-type APP assessed as reduction in amyloid beta-40 production after 16 hrs by sandwich ELISA"}, "[4]": {"assay": "Cytotoxicity against CHO cells expressing wild-type APP assessed as cell viability at 600 uM by neutral red uptake assay relative to control", "assay_type": "cell-based, Cricetulus griseus", "conditions": "chinese hamster, read-out: Activity"}, "[5]": {"assay": "Cytotoxicity against human SH-SY5Y cells expressing wild-type APP assessed as cell viability at 600 uM by trypan blue dye exclusion assay relative to control", "assay_type": "cell-based", "conditions": "read-out: Activity"}, "Mus musculus [6]": {"test_system": "Mus musculus", "assay": "In vivo inhibition of BACE-1 in triple transgenic mouse model of Alzheimer's disease assessed as reduction in brain soluble amyloid beta-40 level administered intranasally qd for 4 days by ELISA", "assay_type": "functional, organism-based"}, "Mus musculus [7]": {"test_system": "Mus musculus", "assay": "Toxicity in triple transgenic mouse model of Alzheimer's disease administered intranasally qd for 4 days", "assay_type": "organism-based", "conditions": "in vivo, inhaled_or_intranasal, 96 h"}, "Mus musculus [8]": {"test_system": "Mus musculus", "assay": "In vivo inhibition of BACE-1 in triple transgenic mouse model of Alzheimer's disease assessed as reduction in brain insoluble amyloid beta-40 level administered intranasally qd for 4 days by ELISA", "assay_type": "functional, organism-based"}}, "note": "Several values for one entry are separate records, joined by “and”; a condition that tells them apart may be missing. Equal entries are not always repeated.", "data": [{"smiles": "C=C1C(=O)C(C)=C(C)C1(C)C", "values": [{"measurement": "Ki", "setting": "Beta-secretase 1 [1]", "result": 416, "unit": "µM"}, {"measurement": "Ki", "setting": "Cathepsin D", "result": "31 µM and 30.8 µM"}, {"measurement": "EC50", "setting": "Beta-secretase 1 [2]", "result": 73, "unit": "µM"}, {"measurement": "EC50", "setting": "Beta-secretase 1 [3]", "result": 217, "unit": "µM"}, {"measurement": "viability at 600 µM", "setting": "[4]", "result": "> 90", "unit": "%"}, {"measurement": "viability at 600 µM", "setting": "[5]", "result": "> 90", "unit": "%"}, {"measurement": "inhibition", "setting": "Mus musculus [6]", "result": "Dose-dependent effect"}, {"measurement": "Activity", "setting": "Mus musculus [7]", "result": "Non-toxic"}, {"measurement": "inhibition", "setting": "Mus musculus [8]", "result": "Dose-dependent effect"}]}]}
